Values quoted from earlier work as cited in patent US20030206958A1, “Chitosan biopolymer for the topical delivery of active agents” (priority 2002, published 2003).

**Q.** What does the source list for `CC1=C(/C=C/C(C)=C/C=C/C(C)=C/C(=O)O)C(C)(C)CCC1` [tretinoin, all-trans retinoic acid]?
**A.** Patients with irritation (topical (Gilchrest, 1997)): 90 % of patients; Patients discontinuing treatment because of irritation (topical (Stam-Posthuma et al., 1998)): ~50 % of patients
